Measurements taken from patent US20070275943A1, “Method and Composition for Treatment or Prophylaxis of Amyloidosis Disorders” (Acrux DDS Pty Ltd., priority 2003, published 2007).

Experiments:
[1] = molar ratio 1:1 (zinc: Aβ); read-out: KD of high affinity zinc binding; cited from earlier work
[2] = Diffusion across excised human epidermis, flow-through diffusion cells, finite dose; details: test spray (5% w/v 1,10-phenanthroline + 5% w/v octyl salicylate in 95% ethanol) vs control without enhancer, 24 h, 5 μL/cm^2, p<0.01
Procedure: The diffusion experiments were performed using excised human epidermis as the model membrane. These experiments were performed over 24 h with stainless steel, flow-through diffusion cells based on those previously described, (Cooper, E. R. J. Pharm. Sci. 1984, 73, 1153-1156.) except that the cell was modified to increase the diffusional area to 1.0 cm^2. The formulations were applied using a finite dose technique (Franz, T. J. Curr. Probl. Dermatol. 1978, 7, 58-68.) to mimic clinical dosing conditions at an applied dose volume of 5 μL/cm^2. A piece of stainless steel wire mesh was placed directly below the skin in the receptor chamber of the diffusion cell to maintain a turbulent flow of receptor solution below the skin. The diffusion cells were maintained at a flow rate of approximately 1.0 ml/cm^2/h by a microcassette peristaltic pump (Watson Marlow 505S, UK). The cells were kept at 32±0.5° C. by a heater bar and the samples are collected into appropriately sized plastic vials on an automated fraction collector (Isco Retriever II, Lincoln, Nebr.) at specified intervals. […]
Samples were analysed for 1,10-phenanthroline directly by RP-HPLC using the following conditions; Column—Waters Symmetry C18 column (3.9×150 mm) with a 5 μm support size; Mobile phase—20% Acetonitrile buffered with 0.01 M KH2PO4, pH=2.80; Flow rate—0.9 mL/min; Absorbance—235 nm; and Injection volume—20 μL.

increase in the transdermal delivery of 1,10-phenanthroline across the skin [2] [fold]	Compound	Kd [1] [nM]
–	Aβ: polypeptide, major component of the amyloid deposits in Alzheimer's disease	107
1.3	c1cnc2c(c1)ccc1cccnc12 [1,10-phenanthroline]	–
